Experimental findings from PubChem BioAssay (NCI) are described below.

Holding throughout (assay): NCI tumour cell line growth inhibition, 48 h
In assay [1] the test system is SK-MEL-5 melanoma.
The test system of assay [2] is OVCAR-5 ovarian.
In assay [3] the test system is MDA-MB-435.
The test system of assay [4] is OVCAR-4 ovarian.
Assay [5] has as its system SK-MEL-2 melanoma.
In assay [6] the test system is CCRF-CEM leukemia.
Assay [7] relates to OVCAR-3 ovarian.
Assay [8] has as its system EKVX NSCLC.
Assay [9] concerns SNB-75 CNS.
Assay [10] concerns MALME-3M melanoma.

“And” between values parts separate entries of the source, which are not always exact repeats. Equal values may be shown once.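 Protocol summary: plate cells (96-well), add compound at 5 concentrations, incubate 48 h, interpolate endpoints linearly. The concentration for 50% growth inhibition is given as GI50. TGI is the concentration that stops growth completely.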 Where only a bound is given, the exact number is not on record here.

Regarding `Cc1cc(CCl)c(C)cc1CCl`, the GI50 in [1] is 4.19 µM; in [2], 2.94 µM; in [3], 1.84 µM; in [4] it was 3.4 µM; in assay [5], 3.27 µM; in assay [6], 0.351 µM. Also, the GI50 was 1.76 µM in assay [7], 2.08 µM in [8], 1.38 µM in assay [9] and 1.96 µM in assay [10]. For the same compound, the TGI came out at 17.2 µM in assay [1]; 8.62 µM in assay [2]; 4.69 µM in [3]; 12.8 µM in assay [4]; 13.3 µM in assay [5]; 5.61 µM in assay [6]. The TGI in assay [7] is 4.04 µM; in assay [8], 5.49 µM; in [9], 4.15 µM; in assay [10], 5.46 µM.

With `CCCCCCNCCCNc1c2cc(OC)ccc2nc2cccc([N+](=O)[O-])c12`, the GI50 in assay [1] is 0.135 µM; in [2], 0.19 µM; in [3], 0.164 µM; in [4], 0.0885 µM; in assay [5] it was 0.048 µM; in assay [6], 0.118 µM. Further, the GI50 was 0.309 µM in assay [7], 1.35 µM in assay [8], 0.183 µM in assay [9] and 0.179 µM in assay [10]. For the same compound, the TGI in assay [1] is 2.01 µM and 0.279 µM; in [2], 0.383 µM and 0.794 µM; in assay [3], 0.314 µM and 0.321 µM; in [4] it was 0.346 µM and 0.238 µM; in assay [5], 0.209 µM and 0.199 µM; in assay [6], 0.289 µM and 0.538 µM. Further, the TGI in assay [7] was 0.297 µM and 1.05 µM; in assay [8], 0.427 µM and 3.32 µM; in assay [9], 0.865 µM and 0.42 µM; in assay [10] it was 0.199 µM and 0.422 µM.

On to `CN(Cc1ccc(F)cc1)c1ccc(CO)c(Cl)c1`, for which the GI50 in assay [1] is 8.6 µM; in assay [2], 0.426 µM; in assay [3], 44.7 µM; in [4], 2.22 µM; in assay [5] it was 8.32 µM; in [6], 28.9 µM. The GI50 is 3.55 µM in [7], 26.9 µM in [8], 18.4 µM in assay [9] and 24.5 µM in assay [10]. Also, the TGI in [1] is 22.8 µM; in [2] it was 2.37 µM; in assay [3], over 100 µM; in assay [4] it was 19.7 µM; in assay [5] it was 33.8 µM; in assay [6], over 100 µM. Besides, the TGI in assay [7] is 15 µM; in assay [8], over 100 µM; in [9] it was 89.5 µM; in assay [10], 71.9 µM.

For the compound `O=C(c1ccc2ccccc2c1)c1nc2cc(F)ccc2[n+]([O-])c1C(F)(F)F`, the GI50 was 24.9 µM in assay [1]; 23.1 µM in [2]; 15.2 µM in [3]; 18.7 µM in [4]; 18.7 µM in assay [5]; 22.5 µM in assay [6]. The GI50 in [7] was 16.3 µM; in assay [8], 18.2 µM; in assay [9], 17 µM; in [10], 17.3 µM. Moreover, the TGI in assay [1] came out at 67.6 µM; in assay [2], 48.9 µM; in assay [3] it was 28.6 µM; in assay [4], 36.8 µM; in [5] it was 35.8 µM; in [6], 66.3 µM. The TGI in [7] was determined as 29.9 µM; in assay [8], 38 µM; in assay [9], 35.9 µM; in assay [10], 32.9 µM.

On to `C/C(=C(/c1ccccc1)c1ccc(OCC(O)CNCCN2CCOCC2)cc1)c1ccccc1` (stereo not given), for which the GI50 in assay [1] is 1.77 µM; in assay [2] it was 6.48 µM; in [3], 1.67 µM; in assay [4], 3.82 µM; in assay [5], 2.5 µM; in assay [6], 3.48 µM. Also, the GI50 in [7] is 2.43 µM; in [8], 7.15 µM; in [9] it was 2.68 µM; in assay [10] it was 1.62 µM. The TGI in assay [1] was 3.19 µM; in assay [2] it was 20.5 µM; in assay [3], 3.09 µM; in assay [4], 14.4 µM; in [5] it was 6.24 µM; in assay [6], 11.3 µM. Moreover, the TGI was determined as 7.17 µM in assay [7], 20.6 µM in assay [8], 15.6 µM in [9] and 3.04 µM in [10].

In the case of `COc1cc(OCc2cccc(-c3ccccc3)c2C)cc(OC)c1CN1CCCCC1C(=O)NCCOCCOCCN` (stereo not given), the GI50 in [1] was 1.76 µM; in assay [2], 3.73 µM; in assay [3], 1.79 µM; in assay [4], 2.33 µM; in [5] it was 1.96 µM; in assay [6], 2.68 µM. Further, the GI50 in assay [7] was 2.11 µM; in assay [8], 3.71 µM; in assay [9], 2.22 µM; in assay [10], 1.55 µM. Moreover, the TGI in assay [1] was found to be 3.21 µM; in assay [2] it was 14.9 µM; in [3] it was 3.32 µM; in [4] it was 6.48 µM; in [5], 4.03 µM; in assay [6] it was 8.9 µM. Also, the TGI in [7] is 5.03 µM; in [8], 15.7 µM; in [9], 17.7 µM; in assay [10], 3.05 µM.

For the compound `COc1ccc2c(c1)CN([C@@H](C)[C@H]1CC[C@H]3[C@@H]4CC[C@H]5C[C@@H](O)CC[C@]5(C)[C@H]4CC[C@]13C)CO2`, the TGI in assay [1] worked out at 3.28 µM; in assay [2], 13.5 µM; in assay [3], 3.48 µM; in assay [4] it was 17.8 µM; in assay [5], 3.83 µM; in assay [6], 6.19 µM. The TGI came to 18 µM in [7], 14.7 µM in assay [8], 4.94 µM in assay [9] and 3.47 µM in [10].

In the case of `CCCN(CCC)c1ccc(C=O)c(Cl)c1`, the GI50 in [1] is 14.8 µM; in [2] it was 0.432 µM; in [3], 25.2 µM; in assay [4] it was 0.78 µM; in assay [5], 15 µM; in assay [6], 35.5 µM. Further, the GI50 was 1.67 µM in assay [7], 21.4 µM in assay [8], 16.5 µM in [9] and 23.4 µM in assay [10]. The TGI in [1] was 28.6 µM; in assay [2], 2.33 µM; in assay [3], over 87.8 µM; in assay [4], 14.2 µM; in assay [5] it was 44.3 µM; in [6], over 100 µM. For the same compound, the TGI is 6.7 µM in assay [7], over 76.6 µM in assay [8], 55.8 µM in [9] and over 69 µM in assay [10].
